# “And” between values parts separate entries of the source, which are not always exact repeats. Equal values may be shown once.
# Tests used:
# [1] = molecular target: α1β2γ2S GABAAR (Rattus norvegicus, UniProt P62813+P63138); format: cell-based, rat (β2 rat or human)
# [2] = test system: β2/3-containing GABAARs vs β1-containing GABAARs; assay: GABAAR subtype selectivity of potentiation; format: cell-based; conditions: low, subsaturating GABA
# [3] = molecular target: α1β2(D282A)γ2L GABAAR (Rattus norvegicus, UniProt P62813+P63138, D306A); format: cell-based, rat (β2 rat or human); conditions: β2(D282A)
# [4] = molecular target: α1β2(N265S)γ2L GABAAR (Rattus norvegicus, UniProt P62813+P63138, N289S); format: cell-based, rat (β2 rat or human); conditions: β2(N265S)
# [5] = molecular target: α1(Q241L)β2γ2L GABAAR (Rattus norvegicus, UniProt P62813+P63138, Q268L); assay: Two-electrode voltage clamp, potentiation of low GABA currents in oocytes; format: cell-based, rat (β2 rat or human); conditions: 30 μM (+)-catharanthine, 30 μM GABA, n = 6 oocytes
# [6] = molecular target: α2β3γ2S GABAAR (UniProt P47869+P63079); assay: Two-electrode voltage clamp, potentiation of EC5 GABA currents in oocytes; format: cell-based, human α2, rat β3 and γ2S
# [7] = molecular target: α1β2(K279A)γ2L GABAAR (Rattus norvegicus, UniProt P62813+P63138, K303A); format: cell-based, rat (β2 rat or human); conditions: β2(K279A)
# [8] = test system: α2β3γ2S GABAAR; assay: Two-electrode voltage clamp, potentiation of EC5 GABA currents in oocytes; format: cell-based, human α2, rat β and γ2S
# [9] = molecular target: α1β3(M286C)γ2S GABAAR (Rattus norvegicus, UniProt P62813+P63079, M311C); assay: Two-electrode voltage clamp, potentiation of low GABA currents in oocytes; format: cell-based; conditions: 100 μM (+)-catharanthine, ~EC5 GABA, n = 5 oocytes
# [10] = molecular target: T1, α1β2γ2L GABAAR (Rattus norvegicus, UniProt P62813+P63138); assay: Functional competition assay; conditions: for potentiation of GABA-activated receptors: n = 5 oocytes
# [11] = molecular target: T1, α1β2γ2L GABAAR; assay: Two-electrode voltage clamp, concentration-response and mechanistic; format: cell-based, rat (β2 rat or human)
# [12] = molecular target: α2β1γ2S GABAAR (UniProt P15431+P47869); format: cell-based, human α2, rat β1 and γ2S; conditions: 100 μM (+)-catharanthine, % over control EC5 GABA; mean ± SEM
# [13] = molecular target: α1β3γ2S GABAAR (Rattus norvegicus, UniProt P62813+P63079); format: cell-based
# [14] = molecular target: α1β2(R269A)γ2L GABAAR (Rattus norvegicus, UniProt P62813+P63138, R293A); format: cell-based, rat (β2 rat or human); conditions: β2(R269A)
# [15] = molecular target: α1β2(K279A+D282A)γ2L GABAAR (Rattus norvegicus, UniProt P62813+P63138, D306A/K303A); format: cell-based, rat (β2 rat or human); conditions: β2(K279A+D282A)
# [16] = molecular target: α1β2(N265S)γ2S GABAAR (Rattus norvegicus, UniProt P62813+P63138, N289S); assay: Two-electrode voltage clamp, potentiation of low GABA currents in oocytes; format: cell-based, rat (β2 rat or human); conditions: 100 μM (+)-catharanthine, ~EC5 GABA
# [17] = molecular target: α1β1γ2S GABAAR (Rattus norvegicus, UniProt P15431+P62813); format: cell-based; conditions: 100 μM (+)-catharanthine, % over control EC5 GABA; mean ± SEM
# [18] = 100 μM (+)-catharanthine, % over control EC5 GABA, mean ± SEM
# [19] = read-out: KCath (estimated affinity of (+)-catharanthine for the resting receptor), low GABA (PA ~0.2), Eq. 1, NCath = 2, mean ± SEM, 5 oocytes
# [20] = calculated from cCath, NCath = 2
# [21] = low GABA (PA ~0.2), Eq. 1, NCath = 2
# [22] = absence of GABA, Hill equation fit
# [23] = 1 μM R(+)-etomidate + 10 μM (+)-catharanthine
# [24] = GABA + 3 μM loreclezole + 30 μM (+)-catharanthine
compound,measurement,setting,value
"CCC1=C[C@@H]2CN3CCc4c([nH]c5ccccc45)[C@@](C(=O)OC)(C2)[C@@H]13 [(+)-catharanthine, (+)-3,4-didehydrocoronaridine]",(+)-Catharanthine maximal potentiation (%),[1]; [18],739 ± 110 (11) %
same,potentiation of the response to low GABA,"[1]; 100 μM (+)-catharanthine, ~EC5 GABA",1099 ± 163%
same,(+)-Catharanthine relative potentiation (αxβ2/3γ2S)/(αxβ1γ2S),"[1]; α1β2γ2S vs α1β1γ2S, 100 μM",2.7
same,efficacy of potentiation at β2/3-containing relative to β1-containing GABAARs,[2],2.4–3.5 times
same,Kd,[3]; [19],7.1 ± 2.8 µM
same,ΔG,[3]; [20],-0.55 ± 0.07 kcal/mol
same,cCath (ratio of the affinities for the active and resting states),[3]; [21],0.630±0.039
same,EC50,"[3]; low GABA, Hill equation fit",7.7 ± 1.6 µM
same,nH,"[3]; low GABA, Hill equation fit",1.88±0.39
same,Kd,[4]; [19],23.9 ± 2.5 µM
same,ΔG,[4]; [20],-1.12 ± 0.07 kcal/mol
same,cCath (ratio of the affinities for the active and resting states),[4]; [21],0.390±0.021
same,EC50,"[4]; low GABA, Hill equation fit",17.7 ± 1.4 µM
same,nH,"[4]; low GABA, Hill equation fit",1.53±0.13
same,potentiation of GABA-evoked currents,[5],231 ± 33%
same,(+)-Catharanthine maximal potentiation (%),"[6]; 100 μM (+)-catharanthine, % over control EC5 GABA, second line printed α2β3γ2S",728 ± 120 (4) %
same,(+)-Catharanthine relative potentiation (αxβ2/3γ2S)/(αxβ1γ2S),"[6]; second line printed α2β3γ2S vs α2β1γ2S, 100 μM",3.5
same,Kd,"[7]; read-out: KCath (estimated affinity of (+)-catharanthine for the resting receptor), direct activation in the absence of GABA (PA,constitutive 0.22), Eq. 1, NCath = 2, 5 oocytes",17.8 ± 1.6 µM
same,cCath (ratio of the affinities for the active and resting states),"[7]; absence of GABA, Eq. 1, NCath = 2",0.421±0.034
same,EC50,[7]; [22],13.6 ± 2 µM
same,nH,[7]; [22],1.08±0.11
same,ΔG,[7]; [20],-1.04 ± 0.10 kcal/mol
same,(+)-Catharanthine maximal potentiation (%),"[8]; 100 μM (+)-catharanthine, % over control EC5 GABA, first line printed α2β3γ2S",691 ± 65 (5) %
same,(+)-Catharanthine relative potentiation (αxβ2/3γ2S)/(αxβ1γ2S),"[8]; first line printed α2β3γ2S vs α2β1γ2S, 100 μM",3.3
same,potentiation of the response to low GABA,[9],651 ± 115%
same,"predicted PA, model with overlapping sites (Eq. 2)",[10]; [23],0.024 ± 0.006
same,"predicted PA, model with unique non-overlapping sites (Eq. 1)",[10]; [23],0.115 ± 0.031
same,"PA of peak response, observed","[10]; 10 μM (+)-catharanthine coapplied with 1 μM R(+)-etomidate, 7 oocytes",0.086 ± 0.024
same,potentiation of GABA-activated receptors,"[10]; 10 μM (+)-catharanthine, 0.05 μM GABA",1600 ± 400%
same,potentiation of the peak response elicited by R(+)-etomidate,"[10]; 10 μM (+)-catharanthine, 1 μM R(+)-etomidate, n = 7 oocytes",160 ± 24%
same,potentiation of the peak response to pregnanolone,"[10]; 10 μM (+)-catharanthine, 2 μM pregnanolone, five oocytes",2200 ± 400%
same,potentiation of GABA-activated receptors,"[10]; 10 μM (+)-catharanthine, 1–2 μM GABA",353 ± 68%
same,"PA of the peak response, observed",[10]; 0.2–0.5 μM GABA + 3 μM loreclezole + 30 μM (+)-catharanthine,0.21 ± 0.13
same,PA of the peak response,[10]; 0.2–0.5 μM GABA + 30 μM (+)-catharanthine,0.16 ± 0.11
same,"predicted PA, distinct site model",[10]; [24],0.62 ± 0.17
same,"predicted PA, same site model",[10]; [24],0.19 ± 0.11
same,maximal efficacy [(PAmax/PAmin)-1 × 100] / maximum potentiation,"[11]; 2 μM GABA, Hill equation fit, % of control",341%
same,potentiation of GABA-evoked currents,"[11]; 30 μM (+)-catharanthine, 2 μM GABA, n = 6 oocytes",372 ± 72%
same,EC50,"[11]; read-out: EC50 for potentiation, wild-type, 2 μM GABA, Hill equation fit",13.5 ± 1.8 µM
same,Kd,"[11]; read-out: KCath (estimated affinity of (+)-catharanthine for the resting receptor), wild-type, 2 μM GABA background, fit to Eq. 1, NCath constrained to 2, mean ± SEM, 5 oocytes",29.4 ± 6 µM
same,cCath (ratio of the affinities for the active and resting states),"[11]; wild-type, 2 μM GABA background, fit to Eq. 1, NCath constrained to 2",0.231 and 0.231±0.023
same,nH (Hill coefficient),"[11]; wild-type, 2 μM GABA, Hill equation fit",1.66 and 1.66±0.33
same,ΔG (free energy change to stabilize the active state),"[11]; wild-type, calculated from cCath as NCathRTln(cCath), NCath = 2",-1.76 kcal/mol and -1.76 ± 0.12 kcal/mol
same,(+)-Catharanthine maximal potentiation (%),[12],211 ± 26 (5) %
same,(+)-Catharanthine maximal potentiation (%),[13]; [18],646 ± 64 (10) %
same,potentiation of the response to low GABA,"[13]; 100 μM (+)-catharanthine, ~EC5 GABA, n = 6 oocytes",667 ± 111%
same,(+)-Catharanthine relative potentiation (αxβ2/3γ2S)/(αxβ1γ2S),"[13]; α1β3γ2S vs α1β1γ2S, 100 μM",2.4
same,Kd,[14]; [19],18.8 ± 3.3 µM
same,ΔG,[14]; [20],-1.53 ± 0.11 kcal/mol
same,cCath (ratio of the affinities for the active and resting states),[14]; [21],0.279±0.022
same,EC50,"[14]; low GABA, Hill equation fit",9.3 ± 1.2 µM
same,nH,"[14]; low GABA, Hill equation fit",1.29±0.10
same,ΔG,[15]; [20],−0.19 ± 0.01 kcal/mol and −0.19±0.01nd kcal/mol
same,cCath (ratio of the affinities for the active and resting states),"[15]; pooled data, best-fit ± standard error of the fit",0.848±0.010nd
same,EC50,"[15]; pooled data, Hill equation fit",15.8 ± 5.9 µM
same,nH,"[15]; pooled data, Hill equation fit",1.30
same,potentiation of the response to low GABA,[16],224 ± 13%
same,(+)-Catharanthine maximal potentiation (%),[17],269 ± 42 (4) %

# Reference: publication PMC9178925 (Biochemical pharmacology, 2022)
